Test results published in US7205408B2, “Quinolines and nitrogenated derivative thereof substituted in 4-position by a piperidine-containing moiety and their use as antibacterial agents” (priority 1920, dated 2007).
Structures can show the parent of a compound that is named as a salt.

Experiment: MIC of test compounds against various organisms
Assay type: cell-based, S. aureus, S. pneumoniae, H. influenzae, E.faecalis
Settings: not given
Protocol: The MIC (μg/ml) of test compounds against various organisms was determined: S. aureus Oxford, S. aureus WCUH29, S. pneumoniae 1629, S. pneumoniae N1387, S. pneumoniae ERY 2, H. influenzae Q1, E.faecalis 1.

Row | SMILES | MIC
1 | COc1ccc2nccc([C@@H](O)CN3CCC(NCc4ccc5c(c4)NC(=O)C(C)S5)CC3)c2c1 (mixture of isomers) [Example 21, 6-({1-[(R)-2-Hydroxy-2-(6-methoxy-quinolin-4-yl)-ethyl)-piperidin-4-ylamino}-methyl)-2-(R/S)-methyl-4H-benzo[1,4]thiazin-3-one dioxalate] | ≤ 2 µg/mL
2 | COc1ccc2nccc([C@@H](O)CN3CCC(NCc4ccc5c(c4)NC(=O)CO5)CC3)c2c1 [Example 5, 6-({1-[(R)-2-Hydroxy-2-(6-methoxy-quinolin-4-yl)-ethyl]-piperidin-4-ylamino}-methyl)-4H-benzo[1,4]oxazin-3-one dioxalate] | ≤ 2 µg/mL
3 | COc1ccc2nccc([C@@H](O)CN3CCC(NCc4ccc5c(n4)OCCO5)CC3)c2c1 [Example 19, (R)-2-{4-[(2,3-Dihydro-[1,4]dioxino[2,3-b]pyridin-6-ylmethyl)-amino]-piperidin-1-yl}-1-(6-methoxy-quinolin-4-yl)-ethanol dioxalate] | ≤ 0.125 µg/mL
4 | COc1ccc2nccc([C@@H](O)CN3CCC(NS(=O)(=O)c4ccc5c(c4)NC(=O)CCS5)CC3)c2n1 [Example 17, 4-Oxo-2,3,4,5-tetrahydro-benzo[b][1,4]thiazepine-7-sulfonic acid {1-[(R)-2-hydroxy-2-(6-methoxy-[1,5]naphthyridin-4-yl)-ethyl]-piperidin-4-yl}-amide oxalate] | ≤ 2 µg/mL
5 | COc1ccc2nccc([C@@H](O)CN3CCC(NCc4ccc5c(c4)NC(=O)CS5)CC3)c2n1 [Example 16, 6-({1-[(R)-2-Hydroxy-2-(6-methoxy-[1,5]naphthyridin-4-yl)-ethyl]-piperidin-4-ylamino}-methyl)-4H-benzo[1,4]thiazin-3-one dioxalate] | ≤ 0.125 µg/mL

Same assay, conditions: against one or more of S. aureus Oxford, S. aureus WCUH29, S. pneumoniae 1629, S. pneumoniae N1387, S. pneumoniae ERY 2, H. influenzae Q1, E.faecalis 1 (gram positive and gram negative bacteria); read-out: MIC

Row | MIC | SMILES
6 | ≤ 2 µg/mL | COc1ccc2nccc([C@@H](O)CN3CCC(NCc4cnc5c(c4)NC(=O)CS5)CC3)c2c1 [Example 20, 7-({1-[(R)-2-Hydroxy-2-(6-methoxy-quinolin-4-yl)-ethyl]-piperidin-4-ylamino}-methyl)-1-H-pyrido[2,3-b][1,4]thiazin-2-one dioxalate]
7 | ≤ 0.125 µg/mL | COc1ccc2nccc([C@@H](O)CN3CCC(NCc4cc5c(cc4[N+](=O)[O-])OCO5)CC3)c2c1.O=C(O)C(=O)O.O=C(O)C(=O)O [Example 18, (R)-1-(6-Methoxy-quinolin-4-yl)-2-{4-[(6-nitro-benzo[1,3]dioxol-5-ylmethyl)-amino]-piperidin-1-yl}-ethanol dioxalate]
